# Assay results reported in patent US6703400B2, “Methods for treating multidrug resistance” (Schering Corporation, priority 2001, dated 2004).
# pIC50: −log10 of the molar value. Read-outs that look alike come from different tables or passages of the source.
# What was measured:
# [1] = molecular target: MDR1 gene product transport enzyme (P-gp) in CR1R12 cell membranes (Cricetulus griseus, UniProt P21448); assay: P-gp-mediated ATP hydrolysis (phosphate release) assay with CR1R12 membrane microsomes; assay type: biochemical, rodent
# Sequence of MDR1 gene product transport enzyme (P-gp) in CR1R12 cell membranes (P21448 whole entry): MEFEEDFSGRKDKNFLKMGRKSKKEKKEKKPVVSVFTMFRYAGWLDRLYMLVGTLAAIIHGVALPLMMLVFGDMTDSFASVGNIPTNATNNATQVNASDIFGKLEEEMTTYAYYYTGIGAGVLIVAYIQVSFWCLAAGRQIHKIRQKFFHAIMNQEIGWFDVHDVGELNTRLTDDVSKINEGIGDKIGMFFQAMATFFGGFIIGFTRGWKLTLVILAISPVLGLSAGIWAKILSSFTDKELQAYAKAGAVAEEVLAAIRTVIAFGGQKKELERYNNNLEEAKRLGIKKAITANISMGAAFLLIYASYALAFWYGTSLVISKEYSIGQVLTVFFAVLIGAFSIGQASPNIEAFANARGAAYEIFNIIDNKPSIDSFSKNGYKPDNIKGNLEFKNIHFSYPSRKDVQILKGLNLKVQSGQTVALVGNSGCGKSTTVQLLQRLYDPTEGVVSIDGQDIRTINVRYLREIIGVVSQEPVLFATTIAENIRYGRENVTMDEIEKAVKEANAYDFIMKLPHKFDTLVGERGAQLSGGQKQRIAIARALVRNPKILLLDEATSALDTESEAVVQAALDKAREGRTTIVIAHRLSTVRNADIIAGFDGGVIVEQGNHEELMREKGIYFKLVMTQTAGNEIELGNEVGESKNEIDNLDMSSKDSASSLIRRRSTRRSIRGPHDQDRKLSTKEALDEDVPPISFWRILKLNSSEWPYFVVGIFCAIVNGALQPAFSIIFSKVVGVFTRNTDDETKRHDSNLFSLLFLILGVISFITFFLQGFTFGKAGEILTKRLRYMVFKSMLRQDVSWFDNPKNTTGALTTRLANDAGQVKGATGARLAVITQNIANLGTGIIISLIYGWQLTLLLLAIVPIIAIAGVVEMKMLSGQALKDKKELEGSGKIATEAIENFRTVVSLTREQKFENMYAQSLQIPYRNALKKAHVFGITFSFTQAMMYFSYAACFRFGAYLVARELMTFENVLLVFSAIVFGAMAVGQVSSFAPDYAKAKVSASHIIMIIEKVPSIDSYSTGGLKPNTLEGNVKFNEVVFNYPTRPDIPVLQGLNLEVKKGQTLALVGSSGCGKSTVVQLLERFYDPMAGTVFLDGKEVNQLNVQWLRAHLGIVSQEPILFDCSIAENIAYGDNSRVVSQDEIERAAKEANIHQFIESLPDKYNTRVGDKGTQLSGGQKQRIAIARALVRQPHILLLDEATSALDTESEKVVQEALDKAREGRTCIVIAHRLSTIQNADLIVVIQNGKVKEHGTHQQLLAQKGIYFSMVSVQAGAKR
# Excerpt: ATP hydrolysis as nmol/min/mg is plotted against SCH66336 concentration.
# The second Example monitored the consumption of ATP, a high-energy biological energy source required for transporter enzyme function. ATP is converted to two other chemicals—ADP and inorganic phosphate—during the P-gp mediated transport porcess.
# The method was modified to be carried out in a 96-well microplate.
# CR1R12 cell membranes enriched with the MDR1 gene product transport enzyme were used for preparation of membrane microsomes. Cells were washed with complete Hanks' buffer before being resuspended in 10 ml lysis buffer (Tris-25 HCl, 50 mM; mannitol, 50 mM; EGTA, 2 mM; and dithiothreitol, 2 mM; pH 7.0 at 25° C.) containing protease inhibitors (phenylmethylsulfonyl fluoride, 1 mM; aprotinin, 10 μg/ml; leupeptin, 10 μg/ml). All subsequent steps were performed at 4° C. The cells were lysed by nitrogen cavitation (Parr Instrument Co., Moline, Ill.) at 500 psi for 15 min twice. Nuclei and mitochondria were sedimented by centrifugation at 4000×g for 10 min. The microsomal membrane fraction was then sedimented by centrifugation at 100,000×g for 60 min. […] Aliquots of membrane microsomes were rapidly frozen and stored at −80 ° C. until analysis.
# The microsomes were thawed on ice prior to diluting to 3.5 μg protein per well in ice-cold ATPase buffer (sodium ATP, 3 mM; KCl, 50 mM; MgSO4, 10 mM; dithiothreitol, 3 mM; Tris-HCl, 50 mM; pH 7.0) containing 0.5 mM EGTA (to inhibit Ca-ATPase), 0.5 mM ouabain (to inhibit the Na/K-ATPase), and 3 mM sodium azide (to inhibit the mitochondrial ATPase). The total incubation volume including the various inhibitors was 100 μl. The incubation reaction was initiated by transferring the plate from ice to 37° C. and incubating for 30 min; the reaction was terminated by the addition of 50 μl 12% SDS solution at room temperature, followed by the addition of 50 μl of a mixture solution of (equal volumes) 18% fresh ascorbic acid in 1N HCl and 3% ammonium molybdate in 1 N HCl. After 4 min, 100 μl of a solution of 2% sodium citrate and 2% sodium meta-arsenite in 2% acetic acid was added to fix the color formation. […] The respective values for background with ATPase assay buffer alone were obtained in parallel and subtracted from the values for experimental samples.
# [2] = molecular target: P-gp (Cricetulus griseus, UniProt P21448); assay: Retention of rhodamine 123 (Rho), fluorescent P-gp substrate, in cells
# Method: (§1) Fluorescence measurements of individual cells were performed using a Becton-Dickinson FACScalibur fluorescence-activated cell sorter (San Jose, Calif.), equipped with an ultraviolet argon laser (excitation at 488 nm, emission at 530/30 and 570/30 nm band-pass filters). Analysis was gated to include single cells on the basis of forward and side light-scatter and was based on acquisition of data from 10,000 cells. […] A direct functional assay for the P-gp efflux pump in CR1R12 cells was performed with the flow cytometer (Wang et al., 2000).
# (§2) The DNR fluorescence intensity of individual cells was recorded as histograms. The mean fluorescence intensity of 10,000 cells was used for comparison among different conditions. Vanadate was selected as a positive control to normalize the measurements because it can maximally inactivate the P-gp efflux pump. Relative fluorescence was used for quantitation and comparison among different compounds. The relative fluorescence (% inactivation) represents a ratio obtained through the following formula: the geometric mean fluorescence of a discrete sample divided by the geometric mean fluorescence in the presence of 5 mM vanadate, times 100, or expressed as [formula]
# [3] = molecular target: T1, gene product of human MDR1 (P-gp) in NIH 3T3 G185 cells (Homo sapiens, UniProt P08183); settings: IC50 G185 vs IC50 CR1R12
# T1 sequence (P08183 whole entry): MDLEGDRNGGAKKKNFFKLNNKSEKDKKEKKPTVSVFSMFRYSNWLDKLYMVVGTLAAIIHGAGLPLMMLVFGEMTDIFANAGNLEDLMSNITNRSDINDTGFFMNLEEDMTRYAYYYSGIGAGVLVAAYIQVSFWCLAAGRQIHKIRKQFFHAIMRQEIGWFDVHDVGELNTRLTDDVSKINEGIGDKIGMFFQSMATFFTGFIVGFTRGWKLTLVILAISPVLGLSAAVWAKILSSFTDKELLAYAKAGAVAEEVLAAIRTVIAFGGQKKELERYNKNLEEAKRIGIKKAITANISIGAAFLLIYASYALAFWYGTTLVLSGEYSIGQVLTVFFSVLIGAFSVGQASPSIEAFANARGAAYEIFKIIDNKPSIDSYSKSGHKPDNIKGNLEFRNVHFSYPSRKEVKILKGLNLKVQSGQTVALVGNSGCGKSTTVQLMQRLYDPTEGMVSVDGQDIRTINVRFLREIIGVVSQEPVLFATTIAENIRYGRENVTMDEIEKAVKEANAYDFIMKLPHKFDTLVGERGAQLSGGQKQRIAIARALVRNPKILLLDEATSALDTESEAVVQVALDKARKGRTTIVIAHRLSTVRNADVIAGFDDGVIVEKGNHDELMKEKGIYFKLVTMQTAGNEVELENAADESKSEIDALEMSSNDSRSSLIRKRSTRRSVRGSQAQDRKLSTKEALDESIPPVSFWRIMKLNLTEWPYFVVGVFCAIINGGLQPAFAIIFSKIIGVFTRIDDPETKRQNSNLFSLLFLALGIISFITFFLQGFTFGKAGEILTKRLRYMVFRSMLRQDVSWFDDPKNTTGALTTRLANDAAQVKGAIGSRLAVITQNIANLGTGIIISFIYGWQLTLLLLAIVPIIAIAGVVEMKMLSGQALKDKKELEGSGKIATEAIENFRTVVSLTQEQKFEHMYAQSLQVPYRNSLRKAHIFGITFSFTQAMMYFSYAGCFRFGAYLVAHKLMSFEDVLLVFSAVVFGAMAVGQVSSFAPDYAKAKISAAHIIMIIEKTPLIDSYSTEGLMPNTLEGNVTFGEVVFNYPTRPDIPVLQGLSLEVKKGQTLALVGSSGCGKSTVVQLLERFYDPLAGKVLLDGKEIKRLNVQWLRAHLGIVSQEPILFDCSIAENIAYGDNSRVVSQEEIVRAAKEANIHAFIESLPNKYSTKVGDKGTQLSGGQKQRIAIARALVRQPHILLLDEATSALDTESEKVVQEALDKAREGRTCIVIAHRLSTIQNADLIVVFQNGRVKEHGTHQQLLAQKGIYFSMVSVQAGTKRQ
# Method: (§3) The efflux phase or incubation was 30 min in all cases. The average number of cells per assay was 10,000.
# (§4) CR1R12 cell line, provided by Dr. Alan Senior (Univ. of Rochester), was maintained in complete α-minimum essential medium (α-MEM) supplemented with 10% FBS, penicillin/streptomycin (50 units/50 μg/ml) in a 5% CO2-95% air atmosphere at 37° C. Colchicine (0.5 μg/ml) was added to the culture medium. Cells were grown to 80-90% confluency and treated with trypsin-EDTA before subculturing. The NIH 3T3 G185 cell line presenting the gene product of human MDR1 was licensed from NIH and maintained in DMEM.
# as §1
# (§5) Cell viability was assessed using exclusion of 0.4% trypan blue as well as propidium iodide staining. Dead cells in which propidium iodide was bound to double strands of DNA or RNA were detected in certain regions of the cytometry dot plots and not included in the final data calculations.
# as §2
# [4] = molecular target: P-gp (human MDR1) (Homo sapiens, UniProt P08183); assay: in vitro
# Sequence of P-gp (human MDR1) (P08183 whole entry): as above
# Method: as §3, §4, §1, §5, §2
# [5] = molecular target: T1, gene product of human MDR1 (P-gp) in NIH 3T3 G185 cells; assay: cell-based
# Method: as §3, §4, §1, §5, §2
# [6] = molecular target: T2, P-gp efflux pump in CR1R12 cells (Cricetulus griseus, UniProt P21448); settings: compared with verapamil
# T2 sequence (P21448 whole entry): as the sequence (P21448 whole entry) above
# Method: (§6) The efflux phase or incubation was 30 min in all cases. The average number of cells per assay was 10,000. The function for the line through the data is the Hill equation: v=VmaxSn/(K′+Sn). The parameters IC50 and the Hill coefficient along with the standard deviation are shown on the respective graphs.
# (§7) CR1R12 cell line, provided by Dr. Alan Senior (Univ. of Rochester), was maintained in complete α-minimum essential medium (α-MEM) supplemented with 10% FBS, penicillin/streptomycin (50 units/50 μg/ml) in a 5% CO2-95% air atmosphere at 37° C. Colchicine (0.5 μg/ml) was added to the culture medium. Cells were grown to 80-90% confluency and treated with trypsin-EDTA before subculturing.
# (§8) Fluorescence measurements of individual cells were performed using a Becton-Dickinson FACScalibur fluorescence-activated cell sorter (San Jose, Calif.), equipped with an ultraviolet argon laser (excitation at 488 nm, emission at 530/30 and 570/30 nm band-pass filters). […]
# as §5
# (§9) The DNR fluorescence intensity of individual cells was recorded as histograms. […]
# [7] = molecular target: T2, P-gp efflux pump in CR1R12 cells; assay: cell-based
# Method: as §6, §7, §8, §5, §9
compound,measurement,setting,value
"CC(=O)[C@H]1CC[C@H]2[C@@H]3CCC4=CC(=O)CC[C@]4(C)[C@H]3CC[C@]12C [Progesterone, reference compound]",Vmax % control,"[1]; ATP hydrolysis, Table 1",236 % control
"COc1cccc2c1C(=O)c1c(O)c3c(c(O)c1C2=O)C[C@@](O)(C(C)=O)C[C@@H]3O[C@H]1C[C@H](N)[C@H](O)[C@H](C)O1 [Daunorubicin, reference compound]",Vmax % control,"[1]; ATP hydrolysis, Table 1",170 % control
"C=C[C@H]1C[N@@]2CC[C@H]1C[C@@H]2[C@@H](O)c1ccnc2ccc(OC)cc12 [Quinidine, quinidine, reference compound]",Vmax % control,[1],239 % control
NC(=O)N1CCC(CC(=O)N2CCC(C3c4ncc(Br)cc4CCc4cc(Cl)cc(Br)c43)CC2)CC1 (stereo not drawn) [SCH66336],pIC50,[2],~4.96
same,effect on rate of ATP hydrolysis relative to baseline rate,[1],concentration-dependent decrease
same,Vmax,"[1]; ATP hydrolysis, Example B results text",~28 % baseline
same,Vmax,"[1]; ATP hydrolysis, FIG. 2 legend",28 % of control
same,potency in G185 cells relative to CR1R12 cell line,[3],three times as potent
same,IC50 at 30 min,[4],< 3000 nM
same,pIC50,[5],~5.52
same,extent of inhibition of DNR transport,[6],exceeding that of verapamil
same,pIC50,[7],~5.05
